Where two headings read alike, the source gives them in different places.
Assays:
[1] = Castor oil induced diarrhea in the rat; format: in vivo, rat (adult Charles River male); conditions: for Potency (relative to diphenoxylate hydrochloride): oral, diphenoxylate = 1.0
Protocol: CASTOR OIL INDUCED DIARRHEA IN THE RAT
Adult Charles River male rats were fasted in community cages for 24 hours prior to the test, with free access to water. The compound was administered intragastrically (suspended on 0.5% methylcellulose) one hour prior to the administration of castor oil at the dose of 1.0 ml/rat intragastrically. The rats were then observed for the presence or absence of diarrhea, at hourly intervals for up to 8 hours past administration of castor oil. The median effective dose values at each hourly interval were calculated for the compound using the method of Berkson (1953). […] For example:
Comparative Oral Antidiarrheal Potency and Duration of 1-(3,3,3-triphenylpropyl)-4-phenyl-4-piperidinemethanol hydrochloride (a) to Diphenoxylate hydrochloride in the Rat Castor Oil Diarrhea Test

[2] = Analgesic effect in the mouse hot plate and tail clip tests; format: in vivo
Protocol: (§1) The assessment of the analgesic effect of the instant compounds was conducted in the mouse hot plate and tail clip tests.
A mouse (adult male weighing 18-25 grams) is placed in a restraining cylinder on a hot plate with the temperature controlled at 55° ± 0.3° C. The reaction time of the mouse to lick a foot or jump is measured at 60, 40 and 20 minutes before and 30, 60, 90 and 120 minutes after administration of the test compound. The "normal" reaction time is measured as the median of the three pretreatment reaction times. A positive response consists of a reaction time greater than twice the normal time at any of the post treatment times. A dose of the test compound is considered active when 50 percent or more of the animals used show a positive response.
A special clip is applied to the base of the tail of the mouse (adult male weighing 18-25 grams) and the time for the animal to turn around to bite as it is measured. The sensitivity of each mouse is determined one-half hour prior to drug administration. Only those mice attempting to bite the clip are included in the experiment. The test compound is then administered intragastrically and the response to placement of the clip is determined at 30, 60, 90 and 120 minutes after treatment. A response is considered positive if the animal takes more than 2 times the pre-drug time to bite at the clip at any of these time intervals. […]

[3] = Mouse tail clip test (analgesia); format: in vivo; conditions: at 100 and 30 mpk
Protocol: as §1
A special clip is applied to the base of the tail of the mouse (adult male weighing 18-25 grams) and the time for the animal to turn around to bite as it is measured. The sensitivity of each mouse is determined one-half hour prior to drug administration. Only those mice attempting to bite the clip are included in the experiment. The test compound is then administered intragastrically and the response to placement of the clip is determined at 30, 60, 90 and 120 minutes after treatment. A response is considered positive if the animal takes more than 2 times the pre-drug time to bite at the clip at any of these time intervals. A test compound is considered active when 50 percent or more of the animals used show a positive response.

[4] = Rat2, oral (intragastric), rat, 2 hours after castor oil, read-out: ED50
[5] = oral (intragastric), rat, 3 hours after castor oil, read-out: ED50
[6] = oral (intragastric), rat, 4 hours after castor oil, read-out: ED50
[7] = oral (intragastric), rat, 5 hours after castor oil, read-out: ED50
[8] = oral (intragastric), rat, 6 hours after castor oil, read-out: ED50
[9] = oral (intragastric), rat, 7 hours after castor oil, read-out: ED50
[10] = oral (intragastric), rat, 8 hours after castor oil, read-out: ED50

Row | Structure (SMILES) | ED50 [1, 4] | ED50 [1, 5] | ED50 [1, 6] | ED50 [1, 7] | ED50 [1, 8] | ED50 [1, 9] | ED50 [1, 10] | other results
1 | OCC1(c2ccccc2)CCN(CCC(c2ccccc2)(c2ccccc2)c2ccccc2)CC1 [1-(3,3,3-triphenylpropyl)-4-phenyl-4-piperidinemethanol] | – | – | – | – | – | – | – | ability to inhibit gastrointestinal motility ([1]; intragastric, rat): very active; analgesic effect [2]: very little analgesic effect
2 | Cl.OCC1(c2ccccc2)CCN(CCC(c2ccccc2)(c2ccccc2)c2ccccc2)CC1 [(a), 1-(3,3,3-triphenylpropyl)-4-phenyl-4-piperidinemethanol hydrochloride] | 0.14 mg/kg | 0.18 mg/kg | 0.24 mg/kg | 0.28 mg/kg | 0.28 mg/kg | 0.28 mg/kg | 0.35 mg/kg | Potency (relative to diphenoxylate hydrochloride) ([1]; rat, 2 hours after castor oil): 1.35; Potency (relative to diphenoxylate hydrochloride) ([1]; rat, 3 hours after castor oil): 2.25; Potency (relative to diphenoxylate hydrochloride) ([1]; rat, 4 hours after castor oil): 3.25; Potency (relative to diphenoxylate hydrochloride) ([1]; rat, 5 hours after castor oil): 4.33; Potency (relative to diphenoxylate hydrochloride) ([1]; rat, 6 hours after castor oil): 5.71; Potency (relative to diphenoxylate hydrochloride) ([1]; rat, 7 hours after castor oil): 6.44; Potency (relative to diphenoxylate hydrochloride) ([1]; rat, 8 hours after castor oil): 5.42
3 | CCOC(=O)C1(c2ccccc2)CCN(CCC(C#N)(c2ccccc2)c2ccccc2)CC1 [Diphenoxylate, reference compound] | 0.22 mg/kg | 0.36 mg/kg | 0.71 mg/kg | 1.21 mg/kg | 1.62 mg/kg | 1.85 mg/kg | 1.93 mg/kg | –
4 | CCOC(=O)C1(c2ccccc2)CCN(CCC(c2ccccc2)(c2ccccc2)c2ccccn2)CC1 [ethyl 1-[3,3-diphenyl-3-(2-pyridyl)propyl]-4-phenyl-4-piperidinecarboxylate] | – | – | – | – | – | – | – | analgesia (mouse tail clip test) [3]: weak analgesia; ED50 ([1]; Rattus norvegicus, po, 2 h, read-out: ED50 2 hrs. post castor oil): 0.04 mg/kg
